The source made the active and inactive calls. The calls are words filed in the database; no cut-off is given here.
How the values were obtained:
Plasma kallikrein = Plasma kallikrein (Homo sapiens, UniProt P03952); assay: Inhibition of plasma kallikrein (unknown origin) assessed as chromogenic substrate hydrolysis using CS-31(02) as substrate incubated for 1 hr by spectrophotometer based microplate reader method
[1] = biological target: T1, Coagulation factor VII (Homo sapiens) (UniProt P08709); assay: Inhibition of coagulation factor VIIa (unknown origin) assessed as chromogenic substrate using chromozyme t-PA as substrate at 1 mM incubated for 1 hr by spectrophotometer based microplate reader method
T1 sequence (whole entry): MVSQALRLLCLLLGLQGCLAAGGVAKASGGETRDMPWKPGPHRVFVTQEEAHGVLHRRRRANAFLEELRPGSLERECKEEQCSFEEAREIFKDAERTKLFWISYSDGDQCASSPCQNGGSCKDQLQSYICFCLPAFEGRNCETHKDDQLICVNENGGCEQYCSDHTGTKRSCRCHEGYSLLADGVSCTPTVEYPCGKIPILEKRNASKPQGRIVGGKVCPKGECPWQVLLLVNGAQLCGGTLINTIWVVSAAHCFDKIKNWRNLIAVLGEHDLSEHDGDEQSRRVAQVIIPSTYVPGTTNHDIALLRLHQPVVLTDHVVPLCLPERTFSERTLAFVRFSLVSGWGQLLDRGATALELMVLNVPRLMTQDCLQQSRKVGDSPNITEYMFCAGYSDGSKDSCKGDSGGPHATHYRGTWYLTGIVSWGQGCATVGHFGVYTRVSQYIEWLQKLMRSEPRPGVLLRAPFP

Homo sapiens [2] = species on record: Homo sapiens; assay: Selectivity index, ratio of IC50 for coagulation factor XIIa (unknown origin) to IC50 for coagulation factor XIa (unknown origin)
Homo sapiens [3] = species on record: Homo sapiens; assay: Selectivity index, ratio of IC50 for coagulation factor IXa (unknown origin) to IC50 for coagulation factor XIa (unknown origin)
Homo sapiens [4] = species on record: Homo sapiens; assay: Selectivity index, ratio of IC50 for thrombin (unknown origin) to IC50 for coagulation factor XIa (unknown origin)
[5] = Half life in Sprague-Dawley rat at 10 mg/kg, iv after 0.083 to 24 hrs by LC-MS/MS analysis; assay type: ADME, organism-based; conditions: in vivo, time 0.083-24 hrs
[6] = Cmax in Sprague-Dawley rat at 10 mg/kg, iv after 0.083 to 24 hrs by LC-MS/MS analysis; assay type: ADME, organism-based; design: route intravenous, dose 10 mg/kg, time upper 24 hrs, time lower 0.083 hrs; conditions: in vivo
Mus musculus = assay: Antithrombotic activity in C57BL/6J mouse model of FeCl3-induced carotid artery thrombosis assessed as time of occlusion pretreated at 6.5 mg/kg for 10 mins followed by FeCl3 addition for 3 mins and measured after 30 mins; assay type: functional, organism-based
[7] = Acute toxicity in ICR mouse assessed as histological change in kidney at 50 to 100 mg/kg, iv as single dose for 14 days by H and E staining method; assay type: organism-based; conditions: in vivo, 336 h, dose 50-100 mg/kg, time 14 day
[8] = Acute toxicity in ICR mouse assessed as histological change in liver at 50 to 100 mg/kg, iv as single dose for 14 days by H and E staining method; assay type: organism-based; conditions: in vivo, 336 h, dose 50-100 mg/kg, time 14 day
[9] = Toxicity in C57BL/6J mouse assessed as bleeding risk at 20 mg/kg, iv measured after 15 mins by tail transection assay; assay type: organism-based; conditions: in vivo, 0.25 h
[10] = Toxicity in C57BL/6J mouse assessed as bleeding risk at 35 mg/kg, iv measured after 15 mins by tail transection assay; assay type: organism-based; conditions: in vivo, 0.25 h

Chain of Plasma kallikrein (P03952 20-390 limits assumed): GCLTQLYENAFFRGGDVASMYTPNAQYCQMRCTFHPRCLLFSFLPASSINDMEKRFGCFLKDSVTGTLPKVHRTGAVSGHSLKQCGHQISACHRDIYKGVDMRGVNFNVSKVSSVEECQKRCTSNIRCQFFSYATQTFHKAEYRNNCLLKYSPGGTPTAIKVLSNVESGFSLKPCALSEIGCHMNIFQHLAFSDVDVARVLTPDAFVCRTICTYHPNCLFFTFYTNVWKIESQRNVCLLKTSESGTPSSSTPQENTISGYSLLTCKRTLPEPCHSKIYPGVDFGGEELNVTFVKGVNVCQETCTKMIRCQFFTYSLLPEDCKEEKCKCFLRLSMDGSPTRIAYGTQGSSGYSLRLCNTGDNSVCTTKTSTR
Chain of Plasma kallikrein (P03952 391-638 limits assumed): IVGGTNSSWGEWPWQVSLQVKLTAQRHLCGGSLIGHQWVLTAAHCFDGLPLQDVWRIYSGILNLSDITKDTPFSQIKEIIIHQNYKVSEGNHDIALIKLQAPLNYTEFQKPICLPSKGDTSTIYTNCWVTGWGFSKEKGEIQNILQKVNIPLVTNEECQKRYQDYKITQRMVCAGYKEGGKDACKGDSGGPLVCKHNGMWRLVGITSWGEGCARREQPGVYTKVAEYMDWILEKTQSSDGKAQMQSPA

O=C(/C=C/c1cc(Cl)ccc1-n1cnnn1)N[C@@H](CC(=O)N1CCN(c2ccccc2)CC1)C(=O)Nc1ccc(C(=O)O)cc1
IC50 (Plasma kallikrein): 27.9 µM | inhibition [1]: inactive | Ratio IC50 (Homo sapiens [2]): > 5000 | Ratio IC50 (Homo sapiens [3]): > 5000 | Ratio IC50 (Homo sapiens [4]): > 5000 | half-life [5]: 1.26 h | Cmax [6]: 57 µg/mL | Activity (Mus musculus): inactive | Activity [7]: Non-Toxic | Activity [8]: Non-Toxic | Activity [9]: Non-Toxic | Activity [10]: Non-Toxic

Reference: ChEMBL document CHEMBL5046289, “Targeting the S2 Subsite Enables the Structure-Based Discovery of Novel Highly Selective Factor XIa Inhibitors” (J Med Chem, 2022)
